Laboratory results taken from patent publication EP2264011A1, “Heteroarylamidines and their use as fungicides” (Bayer CropScience AG, priority 2009, dated 2010).
Blank lines part the entries; values can stand above or below the compound they belong to.

How the values were obtained:
physchem = details: pH 2.3
Text: Die Bestimmung erfolgt im sauren Bereich bei pH 2.3 mit 0,1% wässriger Phosphorsäure und Acetonitril als Eluenten linearer Gradient von 10% Acetonitril bis 95% Acetonitril.

Botrytis cinerea = test: Botrytis test (cucumber) / protective; type: in vivo; details: 500ppm active ingredient, evaluated 5-6 days after inoculation
Experimental: (§1) Zur Herstellung einer zweckmäßigen Wirkstoffzubereitung vermischt man 1 Gewichtsteil Wirkstoff mit den angegebenen Mengen Lösungsmittel und Emulgator und verdünnt das Konzentrat mit Wasser auf die gewünschte Konzentration.
Zur Prüfung auf protektive Wirksamkeit bespritzt man junge Gurkenpflanzen mit der Wirkstoffzubereitung in der angegebenen Aufwandmenge. 1 Tag nach der Behandlung werden die Pflanzen mit einer Sporensuspension von Botrytis cinerea inokuliert und stehen dann 48h bei 100% rel. Feuchte und 22°C. Anschließend stehen die Pflanzen bei 96% rel. Luftfeuchtigkeit und einer Temperatur von 14°C.
5-6 Tage nach der Inokulation erfolgt die Auswertung. Dabei bedeutet 0 % ein Wirkungsgrad, der demjenigen der Kontrolle entspricht, während ein Wirkungsgrad von 100 % bedeutet, dass kein Befall beobachtet wird.

[1] = test system: Blumeria graminis f·sp. hordei; test: Blumeria graminis test (barley) / protective; type: in vivo; details: 1000 ppm active ingredient, evaluated 7 days after inoculation
Text: as §1
Zur Prüfung auf protektive Wirksamkeit besprüht man junge Pflanzen mit der Wirkstoffzubereitung in der angegebenen Aufwandmenge.
Nach Antrocknen des Spritzbelages werden die Pflanzen mit Sporen von Blumeria graminis f·sp. hordei bestäubt.
Die Pflanzen werden in einem Gewächshaus bei einer Temperatur von ca. 18°C und einer relativen Luftfeuchtigkeit von ca. 80 % aufgestellt, um die Entwicklung von Mehltaupusteln zu begünstigen.
7 Tage nach der Inokulation erfolgt die Auswertung. Dabei bedeutet 0 % ein Wirkungsgrad, der demjenigen der Kontrolle entspricht, während ein Wirkungsgrad von 100 % bedeutet, dass kein Befall beobachtet wird.

Venturia inaequalis = test: Venturia test (apple) / protective; type: in vivo; details: 100ppm active ingredient, evaluated 10 days after inoculation
Text: as §1
Zur Prüfung auf protektive Wirksamkeit werden junge Pflanzen mit der Wirkstoffzubereitung in der angegebenen Aufwandmenge besprüht. Nach Antrocknen des Spritzbelages werden die Pflanzen mit einer wäßrigen Konidiensuspension des Apfelschorferregers Venturia inaequalis inokuliert und verbleiben dann 1 Tag bei ca. 20°C und 100% relativer Luftfeuchtigkeit in einer Inkubations-kabine.
Die Pflanzen werden dann im Gewächshaus bei ca. 21°C und einer relativen Luftfeuchtigkeit von ca. 90% aufgestellt.
10 Tage nach der Inokulation erfolgt die Auswertung. Dabei bedeutet 0% ein Wirkungsgrad, der demjenigen der Kontrolle entspricht, während ein Wirkungsgrad von 100% bedeutet, daß kein Befall beobachtet wird.

Myzus persicae [2] = test: Myzus test (MYZUPE spray treatment); type: in vivo; details: 500 g/ha; spray on Chinese cabbage leaf discs (Brassica pekinensis); 100 % = all aphids killed
Text: (§2) Zur Herstellung einer zweckmäßigen Wirkstoffzubereitung vermischt man 1 Gewichtsteil Wirkstoff mit den angegebenen Mengen Lösungsmittel und Emulgator und verdünnt das Konzentrat mit emulgatorhaltigem Wasser auf die gewünschte Konzentration.
Chinakohlblattscheiben (Brassica pekinensis), die von allen Stadien der Grünen Pfirsichblattlaus (Myzus persicae) befallen sind, werden mit einer Wirkstoffzubereitung der gewünschten Konzentration gespritzt.
(§3) Nach der gewünschten Zeit wird die Wirkung in % bestimmt. Dabei bedeutet 100 %, dass alle Blattläuse abgetötet wurden; 0 % bedeutet, dass keine Blattläuse abgetötet wurden.

Myzus persicae [3] = test: Myzus test; oral (MYZUPE); type: in vivo; details: 100 g/ha; oral uptake by sucking; 100 % = all aphids killed
Text: Zur Herstellung einer zweckmäßigen Wirkstoffzubereitung vermischt man 1 Gewichtsteil Wirkstoff mit den angegebenen Mengen Lösungsmittel und verdünnt das Konzentrat mit Wasser auf die gewünschte Konzentration.
Gefäße werden mit allen Stadien der Grünen Pfirsichblattlaus (Myzus persicae) besetzt, durch saugen an der Wirkstoffzubereitung der gewünschten Konzentration wird behandelt.
as §3

AMARE [4] = test: Herbicidal action, test type PE; type: in vivo; details: Test-Typ PE, 320 G/HA
Text: (§4) Die herbizide Wirkung der Verbindungen der allgemeinen Formel (I) wird in den nachfolgenden Tabellen näher erläutert.

SETVI [5] = test: Herbicidal action, test type PE; type: in vivo; details: Test-Typ PE, 320 G/HA
Text: as §4

Meloidogyne incognita = test: Meloidogyne test (MELGIN); type: in vivo; details: 20 ppm; sand with lettuce seeds; 100 % = no galls
Text: as §1
Gefäße werden mit Sand, Wirkstofflösung, Meloidogyne incognita-Ei-Larvensuspension und Salatsamen gefüllt. Die Salatsamen keimen und die Pflänzchen entwickeln sich. An den Wurzeln entwickeln sich die Gallen.
Nach der gewünschten Zeit wird die nematizide Wirkung an Hand der Gallenbildung in % bestimmt. Dabei bedeutet 100 %, dass keine Gallen gefunden wurden; 0 % bedeutet, dass die Zahl der Gallen an den behandelten Pflanzen der der unbehandelten Kontrolle entspricht.

DIGSA = test: Herbicidal action, test type PE; type: in vivo; details: Test-Typ PE, 320 G/HA
Text: as §4

ECHCG = test: Herbicidal action, test type PE; type: in vivo; details: Test-Typ PE, 320 G/HA
Text: as §4

VERPE [6] = test: Herbicidal action, test type PE; type: in vivo; details: Test-Typ PE, 320 G/HA
Text: as §4

PHBPU = test: Herbicidal action, test type PO; type: in vivo; details: TEST-TYP PO, 80 G/HA
Text: as §4

VERPE [7] = test: Herbicidal action, test type PO; type: in vivo; details: TEST-TYP PO, 80 G/HA
Text: as §4

Tetranychus urticae = test: Tetranychus test, OP-resistant (TETRUR spray treatment); type: in vivo; details: 500 g/ha; spray on bean leaf discs (Phaseolus vulgaris); 100 % = all spider mites killed
Text: as §2
Bohnenblattscheiben (Phaseolus vulgaris), die von allen Stadien der Gemeinen Spinnmilbe (Tetranychus urticae) befallen sind, werden mit einer Wirkstoffzubereitung der gewünschten Konzentration gespritzt.
Nach der gewünschten Zeit wird die Wirkung in % bestimmt. Dabei bedeutet 100 %, dass alle Spinnmilben abgetötet wurden; 0 % bedeutet, dass keine Spinnmilben abgetötet wurden.

VIOTR = test: Herbicidal action, test type PE; type: in vivo; details: Test-Typ PE, 320 G/HA
Text: as §4

AMARE [8] = test: Herbicidal action, test type PO; type: in vivo; details: TEST-TYP PO, 80 G/HA
Text: as §4

SETVI [9] = test: Herbicidal action, test type PO; type: in vivo; details: TEST-TYP PO, 80 G/HA
Text: as §4

Structure (SMILES): CCN(C)C=Nc1cnc(-c2ccc(C(C)(C)C)cc2)cc1C [Beispiel 142]
Wirkungsgrad (Botrytis cinerea): ≥ 70%
Wirkungsgrad [1]: ≥ 70%

Structure (SMILES): CCN(C)C=Nc1cnc(-c2ccc(C3CCCCC3)cc2)cc1C [Beispiel 209]
Wirkungsgrad (Venturia inaequalis): ≥ 70%
Wirkungsgrad (Botrytis cinerea): ≥ 70%

Structure (SMILES): CCN(C)C=Nc1cnc(-c2cccnc2)cc1C [Beispiel 95]
Wirkung (Myzus persicae [2]): ≥ 80%
Wirkung (Myzus persicae [3]): ≥ 80%

Structure (SMILES): Cc1cc(-c2cc(C(F)(F)F)cc(C(F)(F)F)c2)ncc1N=CN(C)C [Beispiel 172]
Wirkung (Myzus persicae [3]): ≥ 80%

Structure (SMILES): Cc1cc(-c2ccc(F)nc2)ncc1N=CN(C)C [Beispiel 234]
Wirkung (Myzus persicae [2]): ≥ 80%
Wirkung (Myzus persicae [3]): ≥ 80%
nematizide Wirkung an Hand der Gallenbildung (Meloidogyne incognita): ≥ 80%

Structure (SMILES): Cc1cc(-c2cccnc2)ncc1N=CN(C)C [Beispiel 270]
Wirkung (Myzus persicae [2]): ≥ 80%
Wirkung (Myzus persicae [3]): ≥ 80%

Structure (SMILES): CCN(C)C=Nc1cnc(-c2ccc(Cl)c(C(F)(F)F)c2)cc1C [Beispiel 15]
Wirkungsgrad (Venturia inaequalis): ≥ 70%
Wirkungsgrad (Botrytis cinerea): ≥ 70%
Wirkungsgrad [1]: ≥ 70%
herbizide Wirkung AMARE (AMARE [4]): 90
herbizide Wirkung DIGSA (DIGSA): 100
herbizide Wirkung ECHCG (ECHCG): 90
herbizide Wirkung SETVI (SETVI [5]): 100
herbizide Wirkung VERPE (VERPE [6]): 90
herbizide Wirkung PHBPU (PHBPU): 90
herbizide Wirkung VERPE (VERPE [7]): 80

Structure (SMILES): Cc1cc(-c2ccc(C(F)(F)F)cc2)ncc1N=CN(C)C [Beispiel 100]
nematizide Wirkung an Hand der Gallenbildung (Meloidogyne incognita): ≥ 80%

Structure (SMILES): Cc1cc(-c2ccc(C(F)(F)F)c(Cl)c2)ncc1N=CN(C)C [Beispiel 105]
Wirkung (Tetranychus urticae): ≥ 80%
nematizide Wirkung an Hand der Gallenbildung (Meloidogyne incognita): ≥ 80%
herbizide Wirkung ECHCG (ECHCG): 80
herbizide Wirkung SETVI (SETVI [5]): 80
herbizide Wirkung VERPE (VERPE [6]): 100
herbizide Wirkung VIOTR (VIOTR): 90
herbizide Wirkung AMARE (AMARE [8]): 80
herbizide Wirkung SETVI (SETVI [9]): 80
herbizide Wirkung VERPE (VERPE [7]): 80

Structure (SMILES): Cc1cc(Cl)ncc1N=CN(C)C [Beispiel 131]
Wirkungsgrad (Botrytis cinerea): ≥ 70%

Structure (SMILES): Cc1cc(-c2ccc(C(C)(C)C)cc2)ncc1N=CN1CCCCC1 [Beispiel 150]
Wirkungsgrad (Venturia inaequalis): ≥ 70%
Wirkungsgrad (Botrytis cinerea): ≥ 70%

Structure (SMILES): CCN(C)C=Nc1cnc(-c2ccc(OC(F)(F)F)c(F)c2)cc1C [Beispiel 247]
Wirkung (Myzus persicae [3]): ≥ 80%
nematizide Wirkung an Hand der Gallenbildung (Meloidogyne incognita): ≥ 80%

Further lines, with some results ahead:

chromatographic logP (physchem): 1.75
Structure (SMILES): Cc1cc(-c2ccc(Cl)c(C(F)(F)F)c2)ncc1N=CN1CCCC1 [compound 117]

chromatographic logP (physchem): 1.03
Structure (SMILES): CC(=Nc1cnc(-c2ccc(Cl)c(C(F)(F)F)c2)cc1C)N(C)C [compound 123]

chromatographic logP (physchem): 1.25
Structure (SMILES): Cc1cc(-c2ccc(OC(F)(F)F)cc2)ncc1N=CN(C)C [compound 113]

chromatographic logP (physchem): 0.94
Structure (SMILES): CC(=Nc1cnc(-c2ccc(Cl)c(C(F)(F)F)c2)cc1C)N1CCCCC1 [compound 124]

chromatographic logP (physchem): 2.49
Structure (SMILES): CCCCN(C=Nc1cnc(-c2ccc(Cl)c(C(F)(F)F)c2)cc1C)CCCC [compound 118]

chromatographic logP (physchem): 2.23
Structure (SMILES): Cc1cc(-c2ccc(Cl)c(C(F)(F)F)c2)ncc1N=CN(C(C)C)C(C)C [compound 120]

chromatographic logP (physchem): 1.92
Structure (SMILES): CCN(C=Nc1cnc(-c2ccc(Cl)c(C(F)(F)F)c2)cc1C)CC [Beispiel 119]
herbizide Wirkung AMARE (AMARE [4]): 80
herbizide Wirkung SETVI (SETVI [5]): 100

chromatographic logP (physchem): 1.85
Structure (SMILES): Cc1cc(-c2ccc(F)c(C(F)(F)F)c2)ncc1N=CN1CCCC1 [compound 121]

chromatographic logP (physchem): 1.6
Structure (SMILES): CCN(C)C=Nc1cnc(-c2ccc([Si](C)(C)C)cc2)cc1C [compound 116]

chromatographic logP (physchem): 1.34
Structure (SMILES): CCN(C)C=Nc1cnc(-c2ccc(OC(F)(F)F)cc2)cc1C [compound 114]

chromatographic logP (physchem): 1.9
Structure (SMILES): Cc1cc(-c2ccc(F)c(C(F)(F)F)c2)ncc1N=CN(C(C)C)C(C)C [compound 122]

chromatographic logP (physchem): 1.51
Structure (SMILES): Cc1cc(-c2ccc([Si](C)(C)C)cc2)ncc1N=CN(C)C [compound 115]
